Experimental data as given in patent US20080027094A1, “Tropane Compounds and Pharmaceutical Compositions Comprising the Same as an Active Ingredient” (Ono Pharmaceutical Co., Ltd., priority 2004, published 2008).

Experiments:
[1] = system: metacholine-induced airway-constriction; assay: Effect on the airways constriction in guinea pigs (Konzett-Rossler method); format: in vivo; conditions: Hartley male guinea pigs, intratracheal application, metacholine 10 μg/kg i.v.; minimum dose suppressing not less than 80% within 60 min
Method: The present experiment was carried out with Hartley male guinea pigs (supplied by Nippon SLC Co.) as divided into groups each consisting of 3 to 4 animals. The guinea pigs were anesthetized with pentobarbital sodium (60 mg/kg, given intraperitoneally), and were subjected individually to insertion of a cannula into the airways. Each airway cannula was connected with a volume-controlled respirator (Model SN-480-N, manufactured by Shinano Seisakusho Co.) to perform artificial respiration at a ventilation volume of 5 mL and at a ventilation rate of ca. 70/min. For the purpose of application of metacholine, a catheter was inserted into the carotid vein. […] Prior to application of the test substance, and from 5 to 60 min. thereafter, respectively, metacholine was applied intravenously (10 μg/kg) to induce the airway-constriction, and the pressure at which air was passed through the airways, or the air-passage pressure through the airways, was measured with use of the Konzett-Rossler method. The airways-constriction ratio was taken as a proportion, expressed in percentage, of the air-passage pressure through the airways measured after individual application of the test substance to the maximum air-passage pressure through the airways found when the airways were completely clogged and occluded. […]

[2] = system: metacholine-induced bladder constriction; assay: Effects on the bladder constriction in guinea pigs; format: in vivo; conditions: Hartley male guinea pigs, intratracheal application, metacholine 10 μg/kg i.v.; maximum dose suppressing less than 20% at all points within 60 min
Method: The present experiment was carried out with Hartley male guinea pigs (supplied by Nippon SLC Co.) as divided into groups each consisting of 3 to 4 animals. The guinea pigs were anesthetized with a urethane ([…], given subcutaneously), and were subjected individually to insertion of a catheter into the carotid vein in order to apply metacholine. […] All the ureters were ligated in order to prevent the urine from flowing into the bladder from the kidney. The internal pressure of the bladder was measured by means of a pressure transducer, whereby the bladder was filled with physiological saline to such an extent as might exert lower pressure than the urination threshold pressure against the inner wall. […] Prior to application of the test substance, and from 5 to 60 min. thereafter, respectively, metacholine was applied intravenously (10 μg/kg) to induce the bladder constriction, and the internal pressure of the bladder was measured in a time-course manner. The bladder-constriction ratio was taken as the proportion of the internal pressure of the bladder measured after application of the test substance to the internal pressure of the bladder before application of the test substance. […]

Row | Compound | effective dose for the airway-constriction suppression [1] [µg/kg] | no-effective dose for the bladder constriction [2] [µg/kg]
1 | CCOC(=O)COc1cccc(C[N@+]2(C)[C@@H]3CC[C@H]2C[C@@H](OC(=O)C(O)(c2cccs2)c2cccs2)C3)c1.[Br-] [Example 14 (4), (1R,3r,5S,8s)-8-[3-(2-Ethoxy-2-oxoethoxy)benzyl]-3-({hydroxy[di(2-thienyl)]acetyl}oxy)-8-methyl-8-azoniabicyclo[3.2.1]octane bromide] | 3 | 30
2 | C[N+]1(C)[C@@H]2C[C@@H](OC(=O)C(O)(c3cccs3)c3cccs3)C[C@H]1[C@@H]1O[C@@H]12 [tiotropium] | 10 | 1
